Assay results from patent US10590130B2, “Chemical compounds” (AstraZeneca AB, priority 2016, dated 2020).

Assays:
[1] = log D (shake flask, octanol/aqueous buffer); format: physicochemical; conditions: 1-octanol/aqueous buffer
From the text: Physical Properties log D
The lipophilicity of a drug is an important physical property which may influence many biological and metabolic properties of a compound, for example the absorption, distribution, metabolism, excretion and toxicity profiles of a compound. The distribution coefficient between 1-octanol and aqueous buffer, Log DO/W, at pH 7.4, is the most commonly used measurement of the lipophilicity of a compound. The current method for measurement of Log DO/W is based on the traditional shake flask technique, but with the modification of measuring compounds in mixtures of ten at a time using UPLC with quantitative mass spectrometry (MS) as a method to measure the relative octanol and aqueous concentrations. […] An additional QC sample Caffeine, with low Log D, are used and randomly placed in all runs. The method has been thoroughly validated against the previous shake flask methodologies.

[2] = Human hepatocyte assay (metabolic stability); format: in vitro ADME; conditions: human hepatocytes, in vitro intrinsic clearance
Experimental: The metabolic stability of compounds in human hepatocytes was assessed using the following protocol: • 1. Prepare 10 mM stock solutions of compound and control compounds in appropriate solvent (DMSO). Place incubation medium (L-15 Medium) in a 37° C. water bath, and allow warming for at least 15 minutes prior to use. • 2. Add 80 μL of acetonitrile to each well of the 96-well deep well plate (quenching plate). • 3. In a new 96-well plate, dilute the 10 mM test compounds and the control compounds to 100 μM by combining 198 μL of acetonitrile and 2 μL of 10 mM stock. • 4. Remove a vial of cryopreserved (less than −150° C.) human hepatocytes (LiverPool™ 10 Donor Human hepatocytes obtained from Celsis IVT. Chicago, Ill. (Product No. S01205)) from storage, ensuring that vials remain at cryogenic temperatures until thawing process ensues. As quickly as possible, thaw the cells by placing the vial in a 37° C. water bath and gently shaking the vials. Vials should remain in water bath until all ice crystals have dissolved and are no longer visible. After thawing is complete, spray vial with 70% ethanol, transfer the vial to a bio-safety cabinet. • 5. Open the vial and pour the contents into the 50 mL conical tube containing thawing medium. Place the 50 mL conical tube into a centrifuge and spin at 100 g for 10 minutes. […] Using Cellometer® Vision, count cells and determine the viable cell density. Cells with poor viability (<80% viability) are not acceptable for use. […] Transfer 247.5 μL of hepatocytes into each well of a 96-well cell culture plate. Place the plate on Eppendorf Thermomixer Comfort plate shaker to allow the hepatocytes to warm for 10 minutes. • 8. Add 2.5 μL of 100 μM test compound or control compounds into an incubation well containing cells, mix to achieve a homogenous suspension at 0.5 min, which when achieved, will define the 0.5 min time point. At the 0.5 min time, transfer 20 μL of incubated mixture to wells in a “Quenching plate” followed by vortexing. • 9. Incubate the plate at 37° C. at 900 rpm on an Eppendorf Thermomixer Comfort plate shaker. […] Centrifuge the quenching plates for 20 minutes at 4,000 rpm. 4 different compounds are pooled into one cassette and used for LC/MS/MS analysis.
All calculations were carried out using Microsoft Excel. Peak areas were determined from extracted ion chromatograms. In vitro intrinsic clearance (in vitro Clint, in […]) of parent compound was determined by regression analysis of the Ln percent parent disappearance vs. time curve.
V=incubation volume (0.25 mL);
N=number of hepatocytes per well (0.25×10^6 cells).

SMILES	LogD pH 7.4 [1]	Clint [2]
COC[C@](C)(F)CN1[C@H](c2ccc(OC3CN(CCCF)C3)cc2OC)c2ccc3[nH]ncc3c2C[C@H]1C (single isomer, unassigned) [Example 13]	4	–
COc1cc(NC2CN(CCCF)C2)ccc1[C@@H]1c2ccc3[nH]ncc3c2C[C@@H](C)N1CC(F)F [Example 21, N-(4-((6S,8R)-7-(2,2-difluoroethyl)-8-methyl-6,7,8,9-tetrahydro-3H-pyrazolo[4,3-f]isoquinolin-6-yl)-3-methoxyphenyl)-1-(3-fluoropropyl)azetidin-3-amine]	–	6 μL/min/10^6 cells
C[C@@H]1Cc2c(ccc3[nH]ncc23)[C@@H](c2ccc(NC3CN(CCCF)C3)cn2)N1CC1(F)CC1 [Example 3, 6-((6S,8R)-7-((l-fluorocyclopropyl)methyl)-8-methyl-6,7,8,9-tetrahydro-3H-pyrazolo[4,3-f]isoquinolin-6-yl)-N-(1-(3-fluoropropyl)azetidin-3-yl)pyridin-3-amine]	–	5 μL/min/10^6 cells
COc1cc(NC2CN(CCCF)C2)ccc1[C@@H]1c2ccc3[nH]ncc3c2C[C@@H](C)N1CC(F)(F)F [Example 28, 1-(3-fluoropropyl)-N-(3-methoxy-4-((6S,8R)-8-methyl-7-(2,2,2-trifluoroethyl)-6,7,8,9-tetrahydro-3H-pyrazolo[4,3-f]isoquinolin-6-yl)phenyl)azetidin-3-amine]	–	5 μL/min/10^6 cells
COc1cc(NC2CN(CCCF)C2)ccc1[C@@H]1c2ccc3[nH]ncc3c2C[C@@H](C)N1CC(C)(F)F [Example 19, N-(4-((6S,8R)-7-(2,2-difluoropropyl)-8-methyl-6,7,8,9-tetrahydro-3H-pyrazolo[4,3-f]isoquinolin-6-yl)-3-methoxyphenyl)-1-(3-fluoropropyl)azetidin-3-amine]	–	5 μL/min/10^6 cells
COCC(F)(F)CN1[C@H](c2ccc(NC3CN(CCCF)C3)cn2)c2ccc3[nH]ncc3c2C[C@H]1C [Example 2, 6-((6S,8R)-7-(2,2-difluoro-3-methoxypropyl)-8-methyl-6,7,8,9-tetrahydro-3H-pyrazolo[4,3-f]isoquinolin-6-yl)-N-(1-(3-fluoropropyl)azetidin-3-yl)pyridin-3-amine]	–	6 μL/min/10^6 cells
C[C@@H]1Cc2c(ccc3[nH]ncc23)[C@@H](c2ncc(NC3CN(CCCF)C3)cc2F)N1CC1(F)CC1 [Example 18, 5-fluoro-6-((6S,8R)-7-((1-fluorocyclopropyl)methyl)-8-methyl-6,7,8,9-tetrahydro-3H-pyrazolo[4,3-f]isoquinolin-6-yl)-N-(1-(3-fluoropropyl)azetidin-3-yl)pyridin-3-amine]	–	3 μL/min/10^6 cells
C[C@@H]1Cc2c(ccc3[nH]ncc23)[C@@H](c2ccc(NC3CN(CCCF)C3)cn2)N1CC(F)F [Example 25, 6-((6S,8R)-7-(2,2-difluoroethyl)-8-methyl-6,7,8,9-tetrahydro-3H-pyrazolo[4,3-f]isoquinolin-6-yl)-N-(1-(3-fluoropropyl)azetidin-3-yl)pyridin-3-amine]	–	5 μL/min/10^6 cells
COCC(F)(F)CN1[C@H](c2ccc(NC3CN(CCCF)C3)cc2OC)c2ccc3[nH]ncc3c2C[C@H]1C [Example 1, N-(4-((6S,8R)-7-(2,2-difluoro-3-methoxypropyl)-8-methyl-6,7,8,9-tetrahydro-3H-pyrazolo[4,3-f]isoquinolin-6-yl)-3-methoxyphenyl)-1-(3-fluoropropyl)azetidin-3-amine]	–	11 μL/min/10^6 cells
COc1cc(NC2CN(CCCF)C2)ccc1[C@@H]1c2ccc3[nH]ncc3c2C[C@@H](C)N1CC1(F)CC1 [Example 6, N-(4-((6S,8R)-7-((l-fluorocyclopropyl)methyl)-8-methyl-6,7,8,9-tetrahydro-3H-pyrazolo[4,3-f]isoquinolin-6-yl)-3-methoxyphenyl)-1-(3-fluoropropyl)azetidin-3-amine]	–	2 μL/min/10^6 cells
C[C@@H]1Cc2c(ccc3[nH]ncc23)[C@@H](c2c(F)cc(NC3CN(CCCF)C3)cc2F)N1CC1(F)CC1 [Example 11, N-(3,5-difluoro-4-((6S,8R)-7-((1-fluorocyclopropyl)methyl)-8-methyl-6,7,8,9-tetrahydro-3H-pyrazolo[4,3-f]isoquinolin-6-yl)phenyl)-1-(3-fluoropropyl)azetidin-3-amine]	–	7 μL/min/10^6 cells
C[C@@H]1Cc2c(ccc3[nH]ncc23)[C@@H](c2ccc(NC3CN(CCCF)C3)cc2)N1CC(F)F [Example 48, N-(4-((6R,8R)-7-(2,2-difluoroethyl)-8-methyl-6,7,8,9-tetrahydro-3H-pyrazolo[4,3-f]isoquinolin-6-yl)phenyl)-1-(3-fluoropropyl)azetidin-3-amine]	–	4 μL/min/10^6 cells
